From patent publication US20250205259A1, “CLASS OF 7-((FIVE-MEMBERED HETEROCYCLIC)METHYL)-8-CARBOXYLIC ACID-BENZO CYCLIC BORATE DERIVATIVES AND USES THEREOF” (priority 2022, published 2025)
Like-named read-outs stand apart in the source and are kept apart here.

Tests used:
Format in all cases: biochemical
[1] = target: KPC-2 (Klebsiella pneumoniae, UniProt Q9F663); assay: Inhibitory activity on SBL, fluorescent substrate FC-5
[2] = target: OXA-48 (Klebsiella pneumoniae, UniProt Q6XEC0); assay: as above
OXA-48, sequence (Q6XEC0 23-265 limits assumed): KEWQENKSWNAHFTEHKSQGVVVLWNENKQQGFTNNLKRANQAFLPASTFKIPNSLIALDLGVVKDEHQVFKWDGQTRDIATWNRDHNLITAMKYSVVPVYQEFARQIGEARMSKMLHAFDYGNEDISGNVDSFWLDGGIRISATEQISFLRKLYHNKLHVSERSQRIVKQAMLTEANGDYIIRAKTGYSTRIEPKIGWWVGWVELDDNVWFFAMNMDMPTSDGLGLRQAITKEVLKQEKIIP

[3] = target: TEM-1 (Escherichia coli, UniProt P62593); assay: as above; conditions: for IC50: read-out: Inhibitory activity on SBL TEM-1 (IC50 class)
TEM-1, sequence (P62593 24-286 limits assumed): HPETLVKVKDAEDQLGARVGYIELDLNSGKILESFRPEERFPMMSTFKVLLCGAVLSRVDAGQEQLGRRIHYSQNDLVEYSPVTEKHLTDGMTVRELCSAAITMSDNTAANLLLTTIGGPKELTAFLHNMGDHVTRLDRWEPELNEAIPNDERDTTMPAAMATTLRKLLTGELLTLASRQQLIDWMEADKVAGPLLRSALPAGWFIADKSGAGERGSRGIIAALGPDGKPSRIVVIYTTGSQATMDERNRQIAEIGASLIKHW

[4] = target: NDM-1 (Klebsiella pneumoniae, UniProt C7C422); assay: Inhibitory activity on MBL, fluorescent substrate FC-5
NDM-1, sequence (C7C422 29-270 limits assumed): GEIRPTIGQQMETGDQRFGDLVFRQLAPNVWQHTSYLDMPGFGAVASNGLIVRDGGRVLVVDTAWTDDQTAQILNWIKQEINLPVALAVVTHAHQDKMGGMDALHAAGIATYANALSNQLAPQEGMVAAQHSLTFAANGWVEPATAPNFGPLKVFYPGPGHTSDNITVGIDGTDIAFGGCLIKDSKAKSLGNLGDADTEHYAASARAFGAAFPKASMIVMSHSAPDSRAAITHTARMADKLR

[5] = target: VIM-1 (Pseudomonas aeruginosa, UniProt A0A0F7KYQ8); assay: as above
[6] = target: NDM-5 (Klebsiella pneumoniae, UniProt C7C422, M154L/V88L); assay: as above
NDM-5, sequence (C7C422 29-270 V88L/M154L): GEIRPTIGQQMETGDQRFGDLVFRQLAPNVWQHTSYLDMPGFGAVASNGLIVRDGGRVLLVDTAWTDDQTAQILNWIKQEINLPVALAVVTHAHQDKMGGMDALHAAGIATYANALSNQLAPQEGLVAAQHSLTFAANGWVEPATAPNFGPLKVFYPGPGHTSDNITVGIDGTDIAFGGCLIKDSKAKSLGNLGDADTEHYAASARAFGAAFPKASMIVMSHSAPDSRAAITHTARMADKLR

[7] = target: IMP-1 (Serratia marcescens, UniProt P52699); assay: as above
IMP-1, sequence (P52699 19-246 limits assumed): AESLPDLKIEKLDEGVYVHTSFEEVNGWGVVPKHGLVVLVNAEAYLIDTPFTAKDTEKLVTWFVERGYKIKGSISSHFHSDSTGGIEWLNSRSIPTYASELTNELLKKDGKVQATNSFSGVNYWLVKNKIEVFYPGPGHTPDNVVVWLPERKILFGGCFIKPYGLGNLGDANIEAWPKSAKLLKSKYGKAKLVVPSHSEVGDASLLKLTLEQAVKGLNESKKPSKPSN

[8] = target: VIM-2 (Escherichia coli, UniProt Q5U7L7); assay: as above
[9] = target: CTX-M-14 (Escherichia coli, UniProt Q9L5C7); assay: Inhibitory activity on SBL, fluorescent substrate FC-5
CTX-M-14, sequence (Q9L5C7 entry or part of it): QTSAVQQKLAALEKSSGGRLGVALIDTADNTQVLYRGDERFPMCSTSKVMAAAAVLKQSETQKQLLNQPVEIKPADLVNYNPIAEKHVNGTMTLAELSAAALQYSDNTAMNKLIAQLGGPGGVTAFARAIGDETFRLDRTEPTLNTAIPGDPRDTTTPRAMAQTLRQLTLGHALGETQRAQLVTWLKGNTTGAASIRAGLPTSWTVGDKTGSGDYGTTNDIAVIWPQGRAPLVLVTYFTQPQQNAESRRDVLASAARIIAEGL

[10] = salts, read-out: inhibitory activity at a nanomolar-level on KPC-2
[11] = salts, read-out: inhibitory activity at a nanomolar-level on OXA-48
[12] = read-out: Inhibitory activity on SBL KPC-2 (IC50 class)
[13] = read-out: Inhibitory activity on MBL NDM-1 (IC50 class)
[14] = read-out: Inhibitory activity on MBL VIM-1 (IC50 class)
[15] = read-out: Inhibitory activity on MBL NDM-5 (IC50 class)
[16] = read-out: Inhibitory activity on MBL IMP-1 (IC50 class)
[17] = read-out: Inhibitory activity on MBL VIM-2 (IC50 class)
[18] = read-out: Inhibitory activity on SBL OXA-48 (IC50 class)
[19] = read-out: Inhibitory activity on SBL CTX-M-14 (IC50 class)
[20] = VIM-1 and/or VIM-2, read-out: inhibitory activity at a nanomolar-level on VIM-1 and/or VIM-2
[21] = Inhibitory activity on MBL VIM-1 (IC50 class)
[22] = Inhibitory activity on SBL OXA-48 (IC50 class)
[23] = IMP-1 and/or IMP-4, read-out: inhibitory activity at a nanomolar-level on IMP-1 and/or IMP-4
[24] = read-out: inhibitory activity at a nanomolar-level on NDM-1
[25] = read-out: inhibitory activity at a nanomolar-level on NDM-5

KPC-2, sequence (Q9F663 25-293 limits assumed): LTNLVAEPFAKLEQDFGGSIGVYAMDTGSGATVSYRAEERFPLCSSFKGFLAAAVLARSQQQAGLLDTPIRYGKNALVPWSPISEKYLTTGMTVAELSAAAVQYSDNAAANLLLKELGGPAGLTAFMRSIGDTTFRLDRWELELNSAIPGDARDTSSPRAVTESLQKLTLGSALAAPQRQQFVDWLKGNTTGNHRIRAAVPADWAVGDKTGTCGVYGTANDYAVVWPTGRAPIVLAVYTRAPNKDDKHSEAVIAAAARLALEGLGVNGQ

| Compound | IC50 [1, 10] | IC50 [1, 12] | IC50 [3] | IC50 [4, 13] | IC50 [5, 14] | IC50 [6, 15] | IC50 [7, 16] | IC50 [8, 17] | IC50 [2, 18] | IC50 [9, 19] | further results |
| --- | --- | --- | --- | --- | --- | --- | --- | --- | --- | --- | --- |
| NCc1cnn(Cc2ccc3c(c2C(=O)O)OB(O)CC3)c1 [21-phosphoric acid] | < 10 nM |  |  |  |  |  |  |  |  |  | IC50 [2, 11]: < 10 nM |
| NC1(c2cn(Cc3ccc4c(c3C(=O)O)OB(O)CC4)nn2)CC1 [41-propionic acid] | < 10 nM |  |  |  |  |  |  |  |  |  |  |
| NCCc1cnn(Cc2ccc3c(c2C(=O)O)OB(O)CC3)c1 [43-maleic acid] | < 10 nM |  |  |  |  |  |  |  |  |  |  |
| N=C(N)N1Cc2cn(Cc3ccc4c(c3C(=O)O)OB(O)CC4)nc2C1 [58-toluene sulfonic acid] | < 10 nM |  |  |  |  |  |  |  |  |  | IC50 [2, 11]: < 10 nM |
| NCCc1ccc(-c2cn(Cc3ccc4c(c3C(=O)O)OB(O)CC4)nn2)cc1 [63-tartaric acid] | < 10 nM | < 10 nM |  |  |  |  |  |  |  |  |  |
| N=C(N)NCc1ccc(-c2cn(Cc3ccc4c(c3C(=O)O)OB(O)CC4)nn2)cc1 [64-citric acid] | < 10 nM |  |  |  |  |  |  |  |  |  | IC50 [2, 11]: < 10 nM |
| O=C(O)c1c(Cn2ncc3c2CNC3)ccc2c1OB(O)CC2 [66-oxalic acid] | < 10 nM |  |  |  |  |  |  |  |  |  | IC50 [2, 11]: < 10 nM |
| NCc1cn(Cc2ccc3c(c2C(=O)O)OB(O)CC3)nn1 [Compound 7] |  | 10 to 1000 nM | 10 to 1000 nM | 1000 to 100000 nM | 1000 to 100000 nM | 1000 to 100000 nM | 1000 to 100000 nM | 1000 to 100000 nM | 10 to 1000 nM | 10 to 1000 nM |  |
| NCCc1cn(Cc2ccc3c(c2C(=O)O)OB(O)CC3)nn1 [Compound 8] |  | 10 to 1000 nM | 10 to 1000 nM | 1000 to 100000 nM | 1000 to 100000 nM | 10 to 1000 nM | 1000 to 100000 nM | 10 to 1000 nM | 10 to 1000 nM | 10 to 1000 nM | IC50 [5, 20]: < 1000 nM |
| NCc1cnn(Cc2ccc3c(c2C(=O)O)OB(O)CC3)c1 [Compound 21] |  | < 10 nM |  |  |  |  |  |  | < 10 nM |  |  |
| O=C(O)c1c(Cn2nccn2)ccc2c1OB(O)C1CC21 (centres unmarked) [Compound 27] |  |  | 10 to 1000 nM |  |  | 1000 to 100000 nM |  |  |  |  | IC50 [4]: 1000 to 100000 nM; IC50 [5, 21]: 1000 to 100000 nM; IC50 ([5]; inhibitory activity at a nanomolar-level on VIM-1 and/or VIM-2, text summary, VIM-1 and/or VIM-2): < 1000 nM; IC50 [1]: < 10 nM; IC50 [7]: 1000 to 100000 nM; IC50 [8]: 10 to 1000 nM; IC50 [2, 22]: < 10 nM; IC50 [9]: 10 to 1000 nM |
| O=C(O)c1c(Cn2ccnn2)ccc2c1OB(O)C1CC21 (centres unmarked) [Compound 28] |  | < 10 nM | 10 to 1000 nM | 1000 to 100000 nM | 10 to 1000 nM | 1000 to 100000 nM | 10 to 1000 nM | 10 to 1000 nM | 10 to 1000 nM | 10 to 1000 nM | IC50 [5, 20]: < 1000 nM; IC50 [7, 23]: < 1000 nM |
| C[C@H]1Cc2ccc(Cn3ccnn3)c(C(=O)O)c2OB1O [Compound 29] |  | < 10 nM | 10 to 1000 nM | 10 to 1000 nM | 10 to 1000 nM | 10 to 1000 nM | 10 to 1000 nM | 10 to 1000 nM | 10 to 1000 nM | 10 to 1000 nM | IC50 [4, 24]: < 1000 nM; IC50 [5, 20]: < 1000 nM; IC50 [6, 25]: < 1000 nM; IC50 [7, 23]: < 1000 nM |
| CO[C@H]1Cc2ccc(Cn3ccnn3)c(C(=O)O)c2OB1O [Compound 30] |  | < 10 nM | 10 to 1000 nM | 10 to 1000 nM | 10 to 1000 nM | 10 to 1000 nM | 10 to 1000 nM | 10 to 1000 nM | 10 to 1000 nM | 10 to 1000 nM | IC50 [4, 24]: < 1000 nM; IC50 [5, 20]: < 1000 nM; IC50 [6, 25]: < 1000 nM; IC50 [7, 23]: < 1000 nM |
| NCCNc1cnn(Cc2ccc3c(c2C(=O)O)OB(O)CC3)c1 [Compound 33] |  | < 10 nM | 10 to 1000 nM | 10 to 1000 nM | 1000 to 100000 nM | 10 to 1000 nM | 1000 to 100000 nM | 10 to 1000 nM | < 10 nM | 10 to 1000 nM | IC50 [4, 24]: < 1000 nM; IC50 [6, 25]: < 1000 nM |
| N=C(N)NCc1cnn(Cc2ccc3c(c2C(=O)O)OB(O)CC3)c1 [Compound 37] |  | < 10 nM | < 10 nM | 10 to 1000 nM | 1000 to 100000 nM | 10 to 1000 nM | 1000 to 100000 nM | 10 to 1000 nM | < 10 nM | < 10 nM | IC50 [4, 24]: < 1000 nM; IC50 [6, 25]: < 1000 nM |
| N=C(N)Nc1cnn(Cc2ccc3c(c2C(=O)O)OB(O)CC3)c1 [Compound 38] |  | 10 to 1000 nM | 10 to 1000 nM | 10 to 1000 nM | 1000 to 100000 nM | 10 to 1000 nM | 1000 to 100000 nM | 10 to 1000 nM | < 10 nM | 10 to 1000 nM | IC50 [4, 24]: < 1000 nM; IC50 [6, 25]: < 1000 nM |
| NC1(c2cn(Cc3ccc4c(c3C(=O)O)OB(O)CC4)nn2)CC1 [Compound 41] |  | < 10 nM | 10 to 1000 nM |  |  |  |  | 10 to 1000 nM | 10 to 1000 nM | 10 to 1000 nM |  |
| NCCc1cnn(Cc2ccc3c(c2C(=O)O)OB(O)CC3)c1 [Compound 43] |  | < 10 nM |  |  |  |  |  |  |  |  |  |
| N=C(N)N1CC(c2cn(Cc3ccc4c(c3C(=O)O)OB(O)CC4)nn2)C1 [Compound 49-Na] | < 10 nM |  |  |  |  |  |  |  |  |  |  |
| O=C(O)c1c(Cn2cc3c(n2)CNC3)ccc2c1OB(O)CC2 [Compound 56-Na] | < 10 nM | < 10 nM | 10 to 1000 nM | 10 to 1000 nM | 10 to 1000 nM |  | 1000 to 100000 nM | 10 to 1000 nM | < 10 nM | 10 to 1000 nM | IC50 [2, 11]: < 10 nM |
| N=C(N)N1Cc2cn(Cc3ccc4c(c3C(=O)O)OB(O)CC4)nc2C1 [Compound 58] |  | < 10 nM | < 10 nM |  |  |  |  |  | < 10 nM |  |  |
| NCc1ccc(-c2cn(Cc3ccc4c(c3C(=O)O)OB(O)CC4)nn2)cc1 [Compound 63-Na] | < 10 nM |  |  |  |  |  |  |  |  |  | IC50 [2, 11]: < 10 nM |
| N=C(N)NCc1ccc(-c2cn(Cc3ccc4c(c3C(=O)O)OB(O)CC4)nn2)cc1 [Compound 64] |  | < 10 nM |  |  |  |  |  |  | < 10 nM |  | inhibitory activity on TEM-1 compared to avibactam ([3]; comparison in words): better or comparable; inhibitory activity on KPC-2 compared to avibactam ([1]; comparison in words): better or comparable; inhibitory activity on OXA-48 compared to avibactam ([2]; comparison in words): better or comparable; inhibitory activity on CTX-M-14 compared to avibactam ([9]; comparison in words): better or comparable |
| O=C(O)c1c(Cn2ncc3c2CNC3)ccc2c1OB(O)CC2 [Compound 66] |  | < 10 nM | 10 to 1000 nM |  |  |  |  |  | < 10 nM | 10 to 1000 nM |  |
| C[C@]1(Cn2ccnn2)[C@H](C(=O)O)N2C(=O)C[C@H]2S1(=O)=O [Tazobactam, reference compound] |  | 1000 to 100000 nM |  | > 100000 nM |  | > 100000 nM | > 100000 nM | > 100000 nM |  |  | IC50 [5, 21]: > 100000 nM; IC50 [2, 22]: 1000 to 100000 nM |
